What was measured:
Assay type in all cases: in vivo
[1] = test system: yellow nutsedge (Cyperus esculentus); assay: Test C postemergence; details: Cyperus, post-emergence, 336 h, Postemergence, scale 0 to 100, read-out: Plant response rating, Nutsedge, Yellow
Text: (§1) Seeds of plant species selected from blackgrass (Alopecurus myosuroides), Italian ryegrass (Lolium multiflorum), winter wheat (Triticum aestivum), galium (catchweed bedstraw, Galium aparine), corn (Zea mays), large (Lg) crabgrass (Digitaria sanguinalis), giant foxtail (Setaria faberii), johnsongrass (Sorghum halepense), lambsquarters (Chenopodium album), morningglory (Ipomoea coccinea), yellow nutsedge (Cyperus esculentus), pigweed (Amaranthus retroflexus), ragweed (common ragweed, Ambrosia elatior), soybean (Glycine max), barnyardgrass (Echinochloa crus-galli), oilseed rape (Brassica napus), waterhemp (common waterhemp, Amaranthus rudis), and velvetleaf (Abutilon theophrasti) were planted into a blend of loam soil and sand and treated preemergence with test chemicals formulated in a non-phytotoxic solvent mixture which included a surfactant.
(§2) At the same time, plants selected from these crop and weed species and also chickweed (common chickweed, Stellaria media), kochia (Kochia scoparia), and wild oat (Avena fatua), were planted in pots containing Redi-Earth® planting medium (Scotts Company, 14111 Scottslawn Road, Marysville, Ohio 43041) comprising spaghnum peat moss, vermiculite, wetting agent and starter nutrients and treated with postemergence applications of test chemicals formulated in the same manner. Plants ranged in height from 2 to 18 cm (1- to 4-leaf stage) for postemergence treatments. Treated plants and controls were maintained in a greenhouse for 13 to 15 days, after which time all species were compared to controls and visually evaluated. Plant response ratings, summarized in Table C, are based on a scale of 0 to 100 where 0 is no effect and 100 is complete control. A dash (-) response means no test result.

[2] = test system: galium (catchweed bedstraw, Galium aparine); assay: Test C postemergence; details: Galium, post-emergence, 336 h, Postemergence, scale 0 to 100, read-out: Plant response rating, Galium
Text: as §1, §2

[3] = test system: waterhemp (common waterhemp, Amaranthus rudis); assay: Test C postemergence; details: Amaranthus tuberculatus, post-emergence, Postemergence, scale 0 to 100, read-out: Plant response rating, Waterhemp
Text: as §1, §2

[4] = test system: chickweed (common chickweed, Stellaria media); assay: Test C postemergence; details: Stellaria media, post-emergence, Postemergence, scale 0 to 100, read-out: Plant response rating, Chickweed
Text: as §1, §2

[5] = test system: pigweed (Amaranthus retroflexus); assay: Test C postemergence; details: Amaranthus retroflexus, post-emergence, 336 h, Postemergence, scale 0 to 100, read-out: Plant response rating, Pigweed
Text: as §1, §2

wild oat (Avena fatua) = assay: Test C postemergence; details: Avena fatua, post-emergence, Postemergence, scale 0 to 100, read-out: Plant response rating, Oat, Wild
Text: as §1, §2

kochia (Kochia scoparia) = assay: Test C postemergence; details: Bassia scoparia, post-emergence, Postemergence, scale 0 to 100, read-out: Plant response rating, Kochia
Text: as §1, §2

[6] = test system: winter wheat (Triticum aestivum); assay: Test C preemergence; details: scale 0 to 100
In short: (§3)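 Steps: plant seeds in loam-sand soil and treat preemergence, or grow plants in peat-based medium to 2-18 cm and spray; compound formulated in non-phytotoxic solvent/surfactant; hold in greenhouse 13-15 days; score visually versus controls from 0 (no effect) to 100 (complete control).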

[7] = test system: ragweed (common ragweed, Ambrosia elatior); assay: Test C preemergence; details: scale 0 to 100
In short: as §3

[8] = test system: blackgrass (Alopecurus myosuroides); assay: Test C preemergence; details: scale 0 to 100
In short: as §3

[9] = test system: barnyardgrass (Echinochloa crus-galli); assay: Test C preemergence; details: scale 0 to 100
In short: as §3

[10] = test system: velvetleaf (Abutilon theophrasti); assay: Test C preemergence; details: scale 0 to 100
In short: as §3

[11] = test system: waterhemp (common waterhemp, Amaranthus rudis); assay: Test C preemergence; details: scale 0 to 100
In short: as §3

soybean (Glycine max) = assay: Test C preemergence; details: scale 0 to 100
In short: as §3

[12] = test system: large (Lg) crabgrass (Digitaria sanguinalis); assay: Test C preemergence; details: scale 0 to 100
In short: as §3

[13] = test system: giant foxtail (Setaria faberii); assay: Test C preemergence; details: scale 0 to 100
In short: as §3

[14] = test system: pigweed (Amaranthus retroflexus); assay: Test C preemergence; details: scale 0 to 100
In short: as §3

corn (Zea mays) = assay: Test C preemergence; details: scale 0 to 100
In short: as §3

[15] = test system: oilseed rape (Brassica napus); assay: Test C preemergence; details: scale 0 to 100
In short: as §3

[16] = test system: Italian ryegrass (Lolium multiflorum); assay: Test C preemergence; details: scale 0 to 100
In short: as §3

[17] = test system: morningglory (Ipomoea coccinea); assay: Test C preemergence; details: scale 0 to 100
In short: as §3

[18] = test system: johnsongrass (Sorghum halepense); assay: Test C preemergence; details: scale 0 to 100
In short: as §3

N#Cc1cccc(Oc2ncc(Cl)cn2)c1Oc1ccc(Cl)cn1 [Compound 16, 2-[(5-chloro-2-pyridinyl)oxy]-3-[(5-chloro-2-pyrimidinyl)oxy]benzonitrile]
pest or weed control at 31 g/ha ([1]; 31 g ai/ha): 10%
pest or weed control at 62 g/ha ([1]; 62 g ai/ha): 10%
pest or weed control at 125 g/ha ([1]; 125 g ai/ha): 15%
pest or weed control at 16 g/ha ([2]; 16 g ai/ha): 60%
pest or weed control at 31 g/ha ([2]; 31 g ai/ha): 70%
pest or weed control at 62 g/ha ([2]; 62 g ai/ha): 70%
pest or weed control at 125 g/ha ([2]; 125 g ai/ha): 95%
pest or weed control at 31 g/ha ([3]; 31 g ai/ha): 90%
pest or weed control at 62 g/ha ([3]; 62 g ai/ha): 95%
pest or weed control at 125 g/ha ([3]; 125 g ai/ha): 90%
pest or weed control at 16 g/ha ([4]; 16 g ai/ha): 25%
pest or weed control at 31 g/ha ([4]; 31 g ai/ha): 60%
pest or weed control at 62 g/ha ([4]; 62 g ai/ha): 80%
pest or weed control at 125 g/ha ([4]; 125 g ai/ha): 80%
pest or weed control at 31 g/ha ([5]; 31 g ai/ha): 80%
pest or weed control at 62 g/ha ([5]; 62 g ai/ha): 85%
pest or weed control at 125 g/ha ([5]; 125 g ai/ha): 100%
pest or weed control at 31 g/ha (wild oat (Avena fatua); 31 g ai/ha): 10%
pest or weed control at 62 g/ha (wild oat (Avena fatua); 62 g ai/ha): 5%
pest or weed control at 125 g/ha (wild oat (Avena fatua); 125 g ai/ha): 5%
pest or weed control at 16 g/ha (kochia (Kochia scoparia); 16 g ai/ha): 90%
pest or weed control at 31 g/ha (kochia (Kochia scoparia); 31 g ai/ha): 90%
pest or weed control at 62 g/ha (kochia (Kochia scoparia); 62 g ai/ha): 90%
pest or weed control at 125 g/ha (kochia (Kochia scoparia); 125 g ai/ha): 95%

FC(F)(F)c1cnc(Oc2c(Br)cccc2Oc2ncc(Cl)cn2)nc1 [Compound 24]
Plant response rating, Wheat ([6]; 31 g ai/ha, Preemergence): 15
Plant response rating, Wheat ([6]; 62 g ai/ha, Preemergence): 30
Plant response rating, Wheat ([6]; 125 g ai/ha, Preemergence): 60
Plant response rating, Wheat ([6]; 250 g ai/ha, preemergence): 90
Plant response rating, Ragweed ([7]; 31 g ai/ha, Preemergence): 10
Plant response rating, Ragweed ([7]; 62 g ai/ha, Preemergence): 10
Plant response rating, Ragweed ([7]; 125 g ai/ha, Preemergence): 30
Plant response rating, Ragweed ([7]; 250 g ai/ha, preemergence): 80
Plant response rating, Blackgrass ([8]; 31 g ai/ha, Preemergence): 60
Plant response rating, Blackgrass ([8]; 62 g ai/ha, Preemergence): 95
Plant response rating, Blackgrass ([8]; 125 g ai/ha, Preemergence): 95
Plant response rating, Blackgrass ([8]; 250 g ai/ha, preemergence): 95
Plant response rating, Barnyardgrass ([9]; 31 g ai/ha, Preemergence): 75
Plant response rating, Barnyardgrass ([9]; 62 g ai/ha, Preemergence): 100
Plant response rating, Barnyardgrass ([9]; 125 g ai/ha, Preemergence): 100
Plant response rating, Barnyardgrass ([9]; 250 g ai/ha, preemergence): 100
Plant response rating, Velvetleaf ([10]; 31 g ai/ha, Preemergence): 40
Plant response rating, Velvetleaf ([10]; 62 g ai/ha, Preemergence): 85
Plant response rating, Velvetleaf ([10]; 125 g ai/ha, Preemergence): 90
Plant response rating, Velvetleaf ([10]; 250 g ai/ha, preemergence): 90
Plant response rating, Waterhemp ([11]; 31 g ai/ha, Preemergence): 100
Plant response rating, Waterhemp ([11]; 62 g ai/ha, Preemergence): 100
Plant response rating, Waterhemp ([11]; 125 g ai/ha, Preemergence): 100
Plant response rating, Waterhemp ([11]; 250 g ai/ha, preemergence): 100
Plant response rating, Soybean (soybean (Glycine max); 62 g ai/ha, Preemergence): 40
Plant response rating, Soybean (soybean (Glycine max); 125 g ai/ha, Preemergence): 50
Plant response rating, Soybean (soybean (Glycine max); 250 g ai/ha, preemergence): 85
Plant response rating, Crabgrass, Large ([12]; 31 g ai/ha, Preemergence): 100
Plant response rating, Crabgrass, Large ([12]; 62 g ai/ha, Preemergence): 100
Plant response rating, Crabgrass, Large ([12]; 125 g ai/ha, Preemergence): 100
Plant response rating, Crabgrass, Large ([12]; 250 g ai/ha, preemergence): 100
Plant response rating, Foxtail, Giant ([13]; 31 g ai/ha, Preemergence): 98
Plant response rating, Foxtail, Giant ([13]; 62 g ai/ha, Preemergence): 98
Plant response rating, Foxtail, Giant ([13]; 125 g ai/ha, Preemergence): 100
Plant response rating, Foxtail, Giant ([13]; 250 g ai/ha, preemergence): 100
Plant response rating, Pigweed ([14]; 31 g ai/ha, Preemergence): 100
Plant response rating, Pigweed ([14]; 62 g ai/ha, Preemergence): 100
Plant response rating, Pigweed ([14]; 125 g ai/ha, Preemergence): 100
Plant response rating, Pigweed ([14]; 250 g ai/ha, preemergence): 100
Plant response rating, Corn (corn (Zea mays); 31 g ai/ha, Preemergence): 5
Plant response rating, Corn (corn (Zea mays); 62 g ai/ha, Preemergence): 20
Plant response rating, Corn (corn (Zea mays); 125 g ai/ha, Preemergence): 45
Plant response rating, Corn (corn (Zea mays); 250 g ai/ha, preemergence): 65
Plant response rating, Oilseed Rape ([15]; 31 g ai/ha, Preemergence): 80
Plant response rating, Oilseed Rape ([15]; 62 g ai/ha, Preemergence): 100
Plant response rating, Oilseed Rape ([15]; 125 g ai/ha, Preemergence): 100
Plant response rating, Oilseed Rape ([15]; 250 g ai/ha, preemergence): 100
Plant response rating, Ryegrass, Italian ([16]; 31 g ai/ha, Preemergence): 55
Plant response rating, Ryegrass, Italian ([16]; 62 g ai/ha, Preemergence): 90
Plant response rating, Ryegrass, Italian ([16]; 125 g ai/ha, Preemergence): 95
Plant response rating, Ryegrass, Italian ([16]; 250 g ai/ha, preemergence): 95
Plant response rating, Morningglory ([17]; 31 g ai/ha, Preemergence): 25
Plant response rating, Morningglory ([17]; 62 g ai/ha, Preemergence): 85
Plant response rating, Morningglory ([17]; 125 g ai/ha, Preemergence): 80
Plant response rating, Morningglory ([17]; 250 g ai/ha, preemergence): 95
Plant response rating, Johnsongrass ([18]; 31 g ai/ha, Preemergence): 40
Plant response rating, Johnsongrass ([18]; 62 g ai/ha, Preemergence): 55
Plant response rating, Johnsongrass ([18]; 125 g ai/ha, Preemergence): 80
Plant response rating, Johnsongrass ([18]; 250 g ai/ha, preemergence): 100

— patent US20170190671A1, “BIS(ARYL)CATECHOL DERIVATIVES AS HERBICIDES” (E I DU PONT DE NEMOURS AND COMPANY, priority 2014, published 2017)
